Experimental findings from ChEMBL document CHEMBL1201862, “PubChem BioAssay data set” (2004) are described below.

The structures appear in SMILES notation.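 Assay format: 96-well plates, 48-hour exposure. The concentration for 50% growth inhibition is given as GI50.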 The source made the active and inactive calls. No stated cut-off is given here; in the data, active = GI50 up to about 1.1 µM and inactive = higher. Where only a bound is given, the exact number is not on record here.

Test systems include 786-0; A549; HCT-15; HL-60; HOP-62; HT-29; IGROV-1; MDA-MB-231; Malme-3M; OVCAR-3; OVCAR-4; OVCAR-5; SF-295; SK-MEL-28; SN12C; SNB-19; SR; U-251; UACC-257; UACC-62.
Assay in all cases: NCI tumour cell line growth inhibition, 48 h

`c1ccc(CNCCCNCCCCNCCCNCc2ccccc2)cc1`: the GI50 in the assay with 786-0 is 1.5 µM (inactive); in the assay on A549 it was 14.4 µM (inactive); with HCT-15 it was 15.8 µM; in the assay on HL-60 it was 0.656 µM (active); in the assay on HOP-62, 4.15 µM (inactive); in the assay with HT-29, 1.92 µM (inactive). Also, the GI50 in the assay with IGROV-1 was 1.93 µM (inactive); in the assay on MDA-MB-231 it was 6.5 µM (inactive); in the assay on Malme-3M, 2.02 µM (inactive); in the assay with OVCAR-3, 11.9 µM (inactive); with OVCAR-4, 13.8 µM (inactive); with OVCAR-5, 5.22 µM (inactive). The GI50 was 15.1 µM (inactive) in the assay with SF-295; 12.1 µM (inactive) in the assay with SK-MEL-28; 3.72 µM (inactive) in the assay on SN12C; 13.2 µM (inactive) in the assay on SNB-19; 3.39 µM (inactive) in the assay with SR; 7.87 µM (inactive) with U-251. The GI50 with UACC-257 was 15 µM (inactive); in the assay on UACC-62 it was 6.59 µM (inactive).
With `O=C1CCSSCCC(=O)Nc2ccccc2N1`, the GI50 was > 100 µM (inactive) in the assay with 786-0; > 100 µM (inactive) in the assay on A549; greater than 100 µM in the assay on HCT-15; > 100 µM (inactive) in the assay with HL-60; > 100 µM (inactive) with HOP-62; > 100 µM (inactive) with HT-29. Besides, the GI50 with IGROV-1, with MDA-MB-231, with Malme-3M, in the assay on OVCAR-3, in the assay with OVCAR-4 and with OVCAR-5 was > 100 µM (inactive) in each case. The GI50 with SF-295, in the assay with SK-MEL-28, in the assay on SN12C, with SNB-19, in the assay on SR and in the assay with U-251 was > 100 µM (inactive) each time. Further, the GI50 in the assay with UACC-257 and in the assay on UACC-62 was > 100 µM (inactive) throughout.
For `CSc1nc(C)cc(Nc2ccc(O)c(CN3CCOCC3)c2)n1`, the GI50 is > 100 µM (inactive) in the assay on 786-0; > 100 µM (inactive) in the assay on A549; greater than 100 µM in the assay on HCT-15; > 100 µM (inactive) in the assay on HL-60; > 100 µM (inactive) in the assay with HOP-62; 76.9 µM (inactive) in the assay with HT-29. Also, the GI50 in the assay with IGROV-1, with MDA-MB-231, with Malme-3M, in the assay with OVCAR-3, with OVCAR-4 and in the assay with OVCAR-5 was > 100 µM (inactive) each time. Also, the GI50 with SF-295, in the assay on SK-MEL-28, in the assay on SN12C, in the assay with SNB-19, with SR and with U-251 was > 100 µM (inactive) in each case. The GI50 in the assay with UACC-257 and in the assay on UACC-62 was > 100 µM (inactive) throughout.
For the molecule `Cc1nc(-c2ccc(/N=C/c3ccc(N(CCOS(C)(=O)=O)CCOS(C)(=O)=O)cc3C)cc2)cs1`, the GI50 in the assay on 786-0 was 13.8 µM (inactive); in the assay with A549, 11.3 µM (inactive); in the assay on HCT-15 it was 77.6 µM; in the assay with HL-60, 3.94 µM (inactive); in the assay on HOP-62 it was 35.1 µM (inactive); in the assay on HT-29 it was 30.3 µM (inactive). For the same molecule, the GI50 in the assay with IGROV-1 was 28.8 µM (inactive); in the assay on MDA-MB-231, 72.8 µM (inactive); with Malme-3M, 28.9 µM (inactive); in the assay on OVCAR-3 it was 30.8 µM (inactive); with OVCAR-4 it was 59.6 µM (inactive); in the assay with OVCAR-5 it was 30.8 µM (inactive). The GI50 in the assay on SF-295 was 37.7 µM (inactive); with SK-MEL-28 it was 97.9 µM (inactive); in the assay with SN12C, 27.8 µM (inactive); with SNB-19, > 100 µM (inactive); with SR it was 9.51 µM (inactive); with U-251 it was 36.9 µM (inactive). Also, the GI50 in the assay with UACC-257 was 22.8 µM (inactive); with UACC-62, 9.59 µM (inactive).
Take `Cc1cccc2c1C(=O)[C@@](C)([C@]1(C)Nc3cccc(C)c3C1=O)N2`: the GI50 was > 100 µM (inactive) in the assay on 786-0; > 100 µM (inactive) with A549; greater than 100 µM with HCT-15; 0.499 µM (active) with HL-60; > 100 µM (inactive) in the assay with HOP-62; > 100 µM (inactive) in the assay with HT-29. Moreover, the GI50 in the assay on IGROV-1, in the assay with MDA-MB-231, in the assay on Malme-3M, in the assay on OVCAR-3, in the assay on OVCAR-4 and in the assay on OVCAR-5 was > 100 µM (inactive) each time. Also, the GI50 with SF-295, in the assay with SK-MEL-28, in the assay with SN12C, with SNB-19, in the assay on SR and with U-251 was > 100 µM (inactive) throughout. The GI50 in the assay with UACC-257 and in the assay on UACC-62 was > 100 µM (inactive) each time.
For the molecule `CCC/C(Cl)=N\OC(=O)Nc1cccc(C(F)(F)F)c1`, the GI50 in the assay on 786-0 is 16 µM (inactive); in the assay with A549, 19.7 µM (inactive); with HCT-15, 13.5 µM; in the assay with HL-60, 1.88 µM (inactive); with HOP-62, > 100 µM (inactive); in the assay with HT-29, 21.8 µM (inactive). The GI50 with IGROV-1 was 17.1 µM (inactive); in the assay with MDA-MB-231 it was 17 µM (inactive); with Malme-3M, 13.2 µM (inactive); in the assay on OVCAR-3, 22.4 µM (inactive); with OVCAR-4, 22.6 µM (inactive); with OVCAR-5 it was 20.3 µM (inactive). In addition, the GI50 was 13.5 µM (inactive) in the assay on SF-295; 19.2 µM (inactive) in the assay with SK-MEL-28; 15.1 µM (inactive) in the assay with SN12C; > 100 µM (inactive) in the assay on SNB-19; 2.26 µM (inactive) in the assay with SR; 18.5 µM (inactive) in the assay on U-251. For the same molecule, the GI50 is 17.5 µM (inactive) with UACC-257 and 18.9 µM (inactive) with UACC-62.
For the molecule `Cc1ccc2c(n1)C(=O)C=CC2=O`, the GI50 with 786-0 was 5.96 µM (inactive); in the assay with A549, 16.9 µM (inactive); in the assay with HCT-15 it was 9.48 µM; with HL-60, 0.486 µM (active); in the assay with HOP-62, 26.3 µM (inactive); with HT-29, 13.9 µM (inactive). Besides, the GI50 with IGROV-1 was 14.7 µM (inactive); with MDA-MB-231, 4.72 µM (inactive); in the assay with Malme-3M, 5.79 µM (inactive); in the assay on OVCAR-3, 2.71 µM (inactive); in the assay on OVCAR-4, 6.87 µM (inactive); in the assay on OVCAR-5 it was 18.2 µM (inactive). For the same molecule, the GI50 was 18.2 µM (inactive) in the assay with SF-295; 3.56 µM (inactive) with SK-MEL-28; 13.4 µM (inactive) with SN12C; 18 µM (inactive) with SNB-19; 3.24 µM (inactive) with SR; 17.4 µM (inactive) in the assay with U-251. Besides, the values for the GI50 in the assay on UACC-257 and in the assay with UACC-62 were 7.35 µM (inactive) and 13.7 µM (inactive), respectively.
